# Results from PubChem BioAssay (NCI).
#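 Cells were grown in 96-well plates and exposed to each compound for 48 hours at five concentrations; endpoints were interpolated linearly between bracketing concentrations, or set to the highest concentration if not reached. GI50 is the concentration that inhibits growth by half. TGI: concentration producing complete growth inhibition.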
# How the values were obtained:
# Assay in all cases: NCI anticancer screen, dose series, 48 h
# BT-549 breast = test system: BT-549 breast
# SN12C renal = test system: SN12C renal
# OVCAR-3 ovarian = test system: OVCAR-3 ovarian
# SK-MEL-28 melanoma = test system: SK-MEL-28 melanoma
# U251 CNS = test system: U251 CNS
# HT29 colon = test system: HT29 colon
# COLO 205 colon = test system: COLO 205 colon
# SK-MEL-5 melanoma = test system: SK-MEL-5 melanoma
# OVCAR-8 ovarian = test system: OVCAR-8 ovarian
# NCI-H226 lung = test system: NCI-H226 lung
# HOP-62 NSCLC = test system: HOP-62 NSCLC
# NCI/ADR-RES ovarian = test system: NCI/ADR-RES ovarian
# MOLT-4 leukemia = test system: MOLT-4 leukemia
# NCI-H23 lung = test system: NCI-H23 lung
# MCF7 breast = test system: MCF7 breast
# NCI-H522 lung = test system: NCI-H522 lung
# UACC-257 melanoma = test system: UACC-257 melanoma
# HCT-15 colon = test system: HCT-15 colon
# SW-620 colon = test system: SW-620 colon
# PC-3 prostate = test system: PC-3 prostate
# HL-60(TB) leukemia = test system: HL-60(TB) leukemia
# OVCAR-5 ovarian = test system: OVCAR-5 ovarian
# UO-31 renal = test system: UO-31 renal
# HS 578T breast = test system: HS 578T breast
# SF-295 CNS = test system: SF-295 CNS
# OVCAR-4 ovarian = test system: OVCAR-4 ovarian
# NCI-H460 lung = test system: NCI-H460 lung
# DU-145 prostate = test system: DU-145 prostate
# A498 renal = test system: A498 renal
# CCRF-CEM leukemia = test system: CCRF-CEM leukemia
# RPMI-8226 leukemia = test system: RPMI-8226 leukemia
# SF-268 CNS = test system: SF-268 CNS
# IGROV1 ovarian = test system: IGROV1 ovarian
# RXF 393 renal = test system: RXF 393 renal
# SNB-75 CNS = test system: SNB-75 CNS
# SF-539 CNS = test system: SF-539 CNS
# HCT-116 colon = test system: HCT-116 colon
# 786-0 renal = test system: 786-0 renal
# A549 NSCLC = test system: A549 NSCLC
# SNB-19 CNS = test system: SNB-19 CNS
# TK-10 renal = test system: TK-10 renal
# MDA-MB-435 = test system: MDA-MB-435
# SK-OV-3 ovarian = test system: SK-OV-3 ovarian
# UACC-62 melanoma = test system: UACC-62 melanoma
# MALME-3M melanoma = test system: MALME-3M melanoma
# KM12 colon = test system: KM12 colon
# LOX IMVI melanoma = test system: LOX IMVI melanoma
# MDA-MB-231 breast = test system: MDA-MB-231 breast
# ACHN renal = test system: ACHN renal
# M14 melanoma = test system: M14 melanoma
# HCC-2998 colon = test system: HCC-2998 colon
# SK-MEL-2 melanoma = test system: SK-MEL-2 melanoma
# T-47D breast = test system: T-47D breast
# HOP-92 NSCLC = test system: HOP-92 NSCLC
# EKVX NSCLC = test system: EKVX NSCLC
# K-562 leukemia = test system: K-562 leukemia
compound,measurement,setting,value
CC(=O)c1cc2c(c(O)c1C)C(=O)C(=O)c1c(O)cccc1-2,GI50,BT-549 breast,140 nM
same,TGI,BT-549 breast,274 nM
same,GI50,SN12C renal,59.2 nM
same,TGI,SN12C renal,117 nM
same,GI50,OVCAR-3 ovarian,76.8 nM
same,TGI,OVCAR-3 ovarian,280 nM
same,GI50,SK-MEL-28 melanoma,163 nM
same,TGI,SK-MEL-28 melanoma,365 nM
same,GI50,U251 CNS,247 nM
same,TGI,U251 CNS,659 nM
same,GI50,HT29 colon,319 nM
same,TGI,HT29 colon,1490 nM
same,GI50,COLO 205 colon,342 nM
same,TGI,COLO 205 colon,872 nM
same,GI50,SK-MEL-5 melanoma,56.5 nM
same,TGI,SK-MEL-5 melanoma,105 nM
same,GI50,OVCAR-8 ovarian,308 nM
same,TGI,OVCAR-8 ovarian,936 nM
same,GI50,NCI-H226 lung,554 nM
same,TGI,NCI-H226 lung,1050 nM
same,GI50,HOP-62 NSCLC,175 nM
same,TGI,HOP-62 NSCLC,365 nM
same,GI50,NCI/ADR-RES ovarian,360 nM
same,TGI,NCI/ADR-RES ovarian,1390 nM
same,GI50,MOLT-4 leukemia,348 nM
same,TGI,MOLT-4 leukemia,1440 nM
same,GI50,NCI-H23 lung,66.6 nM
same,TGI,NCI-H23 lung,154 nM
same,GI50,MCF7 breast,57.6 nM
same,TGI,MCF7 breast,134 nM
same,GI50,NCI-H522 lung,281 nM
same,TGI,NCI-H522 lung,888 nM
same,GI50,UACC-257 melanoma,188 nM
same,TGI,UACC-257 melanoma,366 nM
same,GI50,HCT-15 colon,113 nM
same,TGI,HCT-15 colon,302 nM
same,GI50,SW-620 colon,120 nM
same,TGI,SW-620 colon,387 nM
same,GI50,PC-3 prostate,510 nM
same,TGI,PC-3 prostate,2030 nM
same,GI50,HL-60(TB) leukemia,89.5 nM
same,TGI,HL-60(TB) leukemia,271 nM
same,GI50,OVCAR-5 ovarian,526 nM
same,TGI,OVCAR-5 ovarian,1010 nM
same,GI50,UO-31 renal,247 nM
same,TGI,UO-31 renal,742 nM
same,GI50,HS 578T breast,248 nM
same,TGI,HS 578T breast,1300 nM
same,GI50,SF-295 CNS,290 nM
same,TGI,SF-295 CNS,763 nM
same,GI50,OVCAR-4 ovarian,199 nM
same,TGI,OVCAR-4 ovarian,636 nM
same,GI50,NCI-H460 lung,460 nM
same,TGI,NCI-H460 lung,1090 nM
same,GI50,DU-145 prostate,56.8 nM
same,TGI,DU-145 prostate,102 nM
same,GI50,A498 renal,962 nM
same,TGI,A498 renal,2380 nM
same,GI50,CCRF-CEM leukemia,460 nM
same,TGI,CCRF-CEM leukemia,> 100000 nM
same,GI50,RPMI-8226 leukemia,615 nM
same,TGI,RPMI-8226 leukemia,1900 nM
same,GI50,SF-268 CNS,133 nM
same,TGI,SF-268 CNS,471 nM
same,GI50,IGROV1 ovarian,521 nM
same,TGI,IGROV1 ovarian,1340 nM
same,GI50,RXF 393 renal,157 nM
same,TGI,RXF 393 renal,416 nM
same,GI50,SNB-75 CNS,153 nM
same,TGI,SNB-75 CNS,301 nM
same,GI50,SF-539 CNS,150 nM
same,TGI,SF-539 CNS,285 nM
same,GI50,HCT-116 colon,216 nM
same,TGI,HCT-116 colon,506 nM
same,GI50,786-0 renal,421 nM
same,TGI,786-0 renal,897 nM
same,GI50,A549 NSCLC,565 nM
same,TGI,A549 NSCLC,1240 nM
same,GI50,SNB-19 CNS,163 nM
same,TGI,SNB-19 CNS,345 nM
same,GI50,TK-10 renal,560 nM
same,TGI,TK-10 renal,1010 nM
same,GI50,MDA-MB-435,56.3 nM
same,TGI,MDA-MB-435,107 nM
same,GI50,SK-OV-3 ovarian,565 nM
same,TGI,SK-OV-3 ovarian,1120 nM
same,GI50,UACC-62 melanoma,164 nM
same,TGI,UACC-62 melanoma,354 nM
same,GI50,MALME-3M melanoma,65.4 nM
same,TGI,MALME-3M melanoma,139 nM
same,GI50,KM12 colon,411 nM
same,TGI,KM12 colon,1740 nM
same,GI50,LOX IMVI melanoma,53.9 nM
same,TGI,LOX IMVI melanoma,101 nM
same,GI50,MDA-MB-231 breast,277 nM
same,TGI,MDA-MB-231 breast,2260 nM
same,GI50,ACHN renal,289 nM
same,TGI,ACHN renal,1120 nM
same,GI50,M14 melanoma,60.5 nM
same,TGI,M14 melanoma,121 nM
same,GI50,HCC-2998 colon,330 nM
same,TGI,HCC-2998 colon,776 nM
same,GI50,SK-MEL-2 melanoma,272 nM
same,TGI,SK-MEL-2 melanoma,922 nM
same,GI50,T-47D breast,554 nM
same,TGI,T-47D breast,3170 nM
same,GI50,HOP-92 NSCLC,906 nM
same,TGI,HOP-92 NSCLC,1880 nM
same,GI50,EKVX NSCLC,673 nM
same,TGI,EKVX NSCLC,3360 nM
same,GI50,K-562 leukemia,281 nM
same,TGI,K-562 leukemia,1050 nM
